Experimental data published in publication PMC4979060, “Structural basis of metallo-β-lactamase, serine-β-lactamase and penicillin-binding protein inhibition by cyclic boronates” (Nature Communications, 2016).
Converted amounts (≈) assume the structure as drawn. Read-outs that look alike come from different tables or passages of the source.

Key:
E. coli IR60 = experiment: MIC by broth microdilution; type: cell-based; details: Escherichia coli
Description: (§1) Bacterial strains: E. coli ATCC 25922 (ref. [35]) and K. pneumoniae NCTC 5055 (ref. [36]) were used as reference strains. K. pneumoniae Ecl8 (ref. [16]) and its ramR knock-out[37] were used as previously described. K. pneumoniae strain IR8 (ref. [40]), and E. coli strains IR10 and IR60 (ref. [17]) were generous gifts of Prof. T.R. Walsh. Plasmid pSU18:NDM-1 contains the complete blaNDM-1 open reading frame, together with its promoter, cloned into plasmid pSU18 (ref. [41]). The recombinant plasmid was made by PCR amplifying the blaNDM-1 gene and surrounding sequences from E. coli IR10 with primers NDM1F 5′- […] -3′ and NDM1R 5′- GGCGATGACAGCATCATC -3′, TA cloning the amplicon into pCR2.1 TOPO (Invitrogen) and subcloning into pSU18 using BamHI and XbaI.
(§2) MIC values were determined by broth microdilution, in triplicate, in cation-adjusted Mueller Hinton broth (Sigma) according to the Clinical Laboratory Standards Institute (CLSI) guidelines. Experiments were carried out in microtitre plates (Corning) containing the medium plus meropenem (Sequoia Research Products, Pangbourne, UK) and/or inhibitor 2 as appropriate. Chloramphenicol (20 μg ml^−1) was included in assays of strains (K. pneumoniae Ecl8 and derivative) that carried pSU18 plasmids or derivatives (pSU18:NDM-1) to ensure maintenance of plasmids throughout. Inhibitor 2 was dissolved in DMSO to 100 mg ml^−1 and diluted in broth. The final concentration of DMSO in the assays was kept constant at 0.01% (experiments using 10 μg ml^−1 inhibitor) or 0.03% (experiments using 25 μg ml^−1 inhibitor). Plates were incubated overnight at 37 °C for 18–24 h and absorbance at 600 nm read using a Polarstar Omega (BMG LabTech) plate reader.

[1] = test system: K pneumoniae Ecl8 ΔramR pSU18:NDM-1; experiment: MIC by broth microdilution; type: cell-based; details: Ecl8 ΔramR pSU18:NDM-1; for MIC: Klebsiella pneumoniae; for Meropenem MIC (25 μg ml^−1 2): with 25 μg ml^−1 2
Description: as §1, §2

K. pneumoniae Ecl8 pSU18 = experiment: MIC by broth microdilution; type: cell-based; details: Klebsiella pneumoniae
Description: as §1, §2

E. coli IR10 = experiment: MIC by broth microdilution; type: cell-based; details: Escherichia coli
Description: as §1, §2

[2] = test system: K pneumoniae Ecl8 ΔramR pSU18; experiment: MIC by broth microdilution; type: cell-based; details: Klebsiella pneumoniae
Description: as §1, §2

[3] = test system: K. pneumoniae Ecl8 pSU18:NDM-1; experiment: MIC by broth microdilution and checkerboard; type: cell-based; details: for MIC: Klebsiella pneumoniae
Description: as §1, §2

K. pneumoniae IR8 = experiment: microbe, parasite or virus in culture; type: cell-based; details: Klebsiella pneumoniae, K. pneumoniae IR8
Description: as §1, §2

CphA = target: T1, CphA (Aeromonas hydrophila, UniProt P26918); experiment: B2 MBL inhibition assay (meropenem substrate), CphA; type: biochemical, Aeromonas hydrophilia
T1 construct: made in house; host or cells: E. coli
Experimental: (§3) Kinetic and inhibition analyses, and ^19F NMR studies[10] against bacterial β-lactamases were performed as described. The FC-5 cephalosporin[9] was used as substrate for BcII, VIM-2, IMP-1, NDM-1, SPM-1, TEM-1 and OXA-10, meropenem[28] for CphA and nitrocefin[34] for PBP 3 and PBP 5.
(§4) In brief IC50 values were determined by preincubation of the appropriate amount of enzyme with the cyclic boronates in the assay buffers for 10 min at room temperature prior to the initiation of the assay by the addition of the appropriate substrate. The enzyme concentrations used are the following: 1 nM BcII, 100 nM VIM-2, 10 nM IMP-1, 10 nM NDM-1, 1 nM SPM-1, 1 nM TEM-1, 1 nM OXA-10, 2.5 nM CphA, 4 μM PBP 3 and 5 μM PBP 5; note that the final concentrations are stated. The assay buffers used are the following: 50 mM HEPES, pH 7.2 supplemented with 1 μg BSA, 1 μg ZnSO4 and 0.01% Triton for BcII, VIM-2, IMP-1, NDM-1 and SPM-1, 15 mM MES, pH 6.5 for CphA, 50 mM HEPES, pH 7.2 supplemented with 200 mM NaCl and 0.01% Triton 100 for TEM-1, 100 mM sodium phosphate, pH 7.2 supplemented with 50 mM NaHCO3 and 0.01% Triton 100 for OXA-10 and 50 mM HEPES, pH 7.2 supplemented with 200 mM NaCl and 0.01% Triton 100 for PBP 3 and PBP 5. The amount of substrates used is the following: 5 μM for BcII, VIM-2, IMP-1, NDM-1 and SPM-1, 10 μM for TEM-1 and OXA-10, 125 μM for CphA and 25 μM for PBP 3 and PBP 5; note that the final concentrations are stated.
(§5) The experiments were performed using a PHERAstar FS microplate reader (BMG Labtech) at room temperature (24–25 °C). All enzymes and inhibitors were prepared in the specific assay buffer. The kinetic values in this study are the means from at least three independent measurements; at least nine different concentrations of the inhibitor were used to determine the kinetic parameters (IC50). The IC50 values were determined using the software package Graph Prism 5.

TEM-1 = target: T2, TEM-1 (Escherichia coli, UniProt P62593); experiment: Fluorogenic β-lactamase inhibition assay (FC-5 substrate), TEM-1; type: biochemical
T2 construct: made in house; host or cells: E. coli
Experimental: as §3, §4, §5

IMP-1 = target: T3, IMP-1 (Serratia marcescens, UniProt P52699); experiment: Fluorogenic β-lactamase inhibition assay (FC-5 substrate), IMP-1; type: biochemical
T3 construct: made in house; host or cells: E. coli
Experimental: as §3
In brief IC50 values were determined by preincubation of the appropriate amount of enzyme with the cyclic boronates in the assay buffers for 10 min at room temperature prior to the initiation of the assay by the addition of the appropriate substrate. The enzyme concentrations used are the following: 1 nM BcII, 100 nM VIM-2, 10 nM IMP-1, 10 nM NDM-1, 1 nM SPM-1, 1 nM TEM-1, 1 nM OXA-10, 2.5 nM CphA, 4 μM PBP 3 and 5 μM PBP 5; note that the final concentrations are stated. […]
The experiments were performed using a PHERAstar FS microplate reader (BMG Labtech) at room temperature (24–25 °C). […] The IC50 values were determined using the software package Graph Prism 5.

BcII = target: T4, BcII (Bacillus cereus, UniProt P04190); experiment: Fluorogenic β-lactamase inhibition assay (FC-5 substrate), BcII; type: biochemical
T4 construct: made in house; host or cells: E. coli
Experimental: as §3, §4, §5

SPM-1 = SPM-1 (Pseudomonas aeruginosa, UniProt Q8G9Q0); experiment: Fluorogenic β-lactamase inhibition assay (FC-5 substrate), SPM-1; type: biochemical
Experimental: as §3, §4, §5

NDM-1 = target: T5, NDM-1 (Klebsiella pneumoniae, UniProt C7C422); experiment: Fluorogenic β-lactamase inhibition assay (FC-5 substrate), NDM-1; type: biochemical
T5 construct: made in house; host or cells: E. coli
Experimental: as §3, §4, §5

VIM-2 = target: T6, VIM-2 (Escherichia coli, UniProt Q5U7L7); experiment: Fluorogenic β-lactamase inhibition assay (FC-5 substrate), VIM-2; type: biochemical
T6 construct: made in house; host or cells: E. coli
Experimental: as §3, §4, §5

HEK293 cells = experiment: Cytotoxicity assay (MTS); type: cell-based; details: human HEK293 cells, concentrations up to 100 μM, 24 h
Experimental: HEK293 cells were seeded (2,000 per well) in normal DMEM in 96-well plates.[34] After 24 h, wells were dosed with titrated concentration of compounds in 1% dimethyl sulphoxide (DMSO)—final volume of media about 100 μl. Following a further 24 h incubation period, 20 μl tetrazolium (MTS, CellTiter96Aqueous One Solution (Promega)) was added to the media in each well. The plate was incubated at 37 °C, 5% CO2 for 4 h in the dark before absorbance was read at 490 nm to determine cell proliferation values.

OXA-10 = target: T7, OXA-10 (Pseudomonas aeruginosa, UniProt P14489); experiment: Fluorogenic β-lactamase inhibition assay (FC-5 substrate), OXA-10; type: biochemical
T7 construct: made in house; host or cells: E. coli
Experimental: as §3, §4, §5

PBP 3 = target: T8, PBP 3 (Pseudomonas aeruginosa, UniProt G3XD46); experiment: PBP inhibition assay (nitrocefin substrate), PBP 3; type: biochemical; details: NI = no inhibition at 100 μM, read-out: IC50 (μM)/pIC50 (converted)
T8 construct: made in house; host or cells: E. coli
Experimental: as §3, §4, §5

T4 sequence (P04190 31-257): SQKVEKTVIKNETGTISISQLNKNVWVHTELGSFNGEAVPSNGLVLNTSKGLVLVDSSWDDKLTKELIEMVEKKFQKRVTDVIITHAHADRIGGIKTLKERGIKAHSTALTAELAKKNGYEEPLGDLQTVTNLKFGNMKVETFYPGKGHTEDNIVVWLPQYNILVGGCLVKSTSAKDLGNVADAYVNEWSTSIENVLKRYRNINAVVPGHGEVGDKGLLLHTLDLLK
T5 sequence (C7C422 29-270, looked up, species assumed): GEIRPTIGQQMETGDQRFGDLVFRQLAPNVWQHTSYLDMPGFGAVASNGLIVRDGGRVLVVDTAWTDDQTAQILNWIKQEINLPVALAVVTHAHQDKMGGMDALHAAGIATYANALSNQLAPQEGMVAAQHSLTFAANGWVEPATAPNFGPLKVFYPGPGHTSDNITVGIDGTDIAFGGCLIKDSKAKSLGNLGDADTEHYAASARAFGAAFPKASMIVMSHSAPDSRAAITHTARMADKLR
T1 sequence (P26918 28-254): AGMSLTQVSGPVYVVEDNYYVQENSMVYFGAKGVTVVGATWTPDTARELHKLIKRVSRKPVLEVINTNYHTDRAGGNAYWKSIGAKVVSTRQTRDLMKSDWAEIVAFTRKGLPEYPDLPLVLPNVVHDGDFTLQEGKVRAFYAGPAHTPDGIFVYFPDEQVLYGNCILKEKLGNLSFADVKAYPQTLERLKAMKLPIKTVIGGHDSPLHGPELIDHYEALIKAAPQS
Chain of SPM-1 (Q8G9Q0 entry or part of it): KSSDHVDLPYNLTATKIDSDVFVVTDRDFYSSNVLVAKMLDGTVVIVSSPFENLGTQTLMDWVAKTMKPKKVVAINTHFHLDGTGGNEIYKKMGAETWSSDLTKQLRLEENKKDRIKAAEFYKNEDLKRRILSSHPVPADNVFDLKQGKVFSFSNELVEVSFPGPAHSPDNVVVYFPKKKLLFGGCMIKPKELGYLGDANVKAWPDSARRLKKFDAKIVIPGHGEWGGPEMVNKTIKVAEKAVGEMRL
T2 sequence (P62593 24-286 limits assumed): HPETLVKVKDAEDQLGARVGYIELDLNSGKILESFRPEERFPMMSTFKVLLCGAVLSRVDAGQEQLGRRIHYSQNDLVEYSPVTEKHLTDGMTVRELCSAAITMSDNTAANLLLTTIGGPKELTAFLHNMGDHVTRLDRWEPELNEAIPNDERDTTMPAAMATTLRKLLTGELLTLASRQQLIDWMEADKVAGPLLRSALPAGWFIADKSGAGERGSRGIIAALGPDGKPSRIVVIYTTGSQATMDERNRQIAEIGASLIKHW
T3 sequence (P52699 19-246, looked up, species assumed): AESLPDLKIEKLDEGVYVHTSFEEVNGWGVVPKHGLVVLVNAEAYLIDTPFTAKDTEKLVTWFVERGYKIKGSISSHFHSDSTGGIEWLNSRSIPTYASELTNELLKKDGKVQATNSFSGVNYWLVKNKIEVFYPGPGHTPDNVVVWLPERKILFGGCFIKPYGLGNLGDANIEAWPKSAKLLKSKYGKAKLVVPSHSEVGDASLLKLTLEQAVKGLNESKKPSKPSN
T8 sequence (G3XD46 whole entry): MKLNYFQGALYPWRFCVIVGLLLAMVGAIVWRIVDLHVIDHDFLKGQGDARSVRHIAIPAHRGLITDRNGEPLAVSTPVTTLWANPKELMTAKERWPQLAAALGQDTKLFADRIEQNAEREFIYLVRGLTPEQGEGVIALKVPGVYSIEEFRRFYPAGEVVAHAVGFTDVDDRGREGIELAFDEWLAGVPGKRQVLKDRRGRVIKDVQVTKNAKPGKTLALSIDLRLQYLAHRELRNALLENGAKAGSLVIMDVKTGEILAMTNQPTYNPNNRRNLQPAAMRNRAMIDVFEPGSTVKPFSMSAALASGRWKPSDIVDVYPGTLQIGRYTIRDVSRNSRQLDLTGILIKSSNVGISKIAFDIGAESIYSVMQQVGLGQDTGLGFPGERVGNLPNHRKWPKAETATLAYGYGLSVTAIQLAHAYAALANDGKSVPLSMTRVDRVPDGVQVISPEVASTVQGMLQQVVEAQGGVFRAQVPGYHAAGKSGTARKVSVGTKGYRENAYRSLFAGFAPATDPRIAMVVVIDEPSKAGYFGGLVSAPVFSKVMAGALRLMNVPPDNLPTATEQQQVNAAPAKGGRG
T7 sequence (P14489 20-266, species assumed): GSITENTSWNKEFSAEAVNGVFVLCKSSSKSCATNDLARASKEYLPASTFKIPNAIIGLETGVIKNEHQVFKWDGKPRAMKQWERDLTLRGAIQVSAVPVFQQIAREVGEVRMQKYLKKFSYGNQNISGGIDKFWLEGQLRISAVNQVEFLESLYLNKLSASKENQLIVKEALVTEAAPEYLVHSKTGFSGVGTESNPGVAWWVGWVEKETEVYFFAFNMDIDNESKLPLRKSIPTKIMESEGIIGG

Molecule `C[C@@H](O)[C@H]1C(=O)N2C(C(=O)O)=C(S[C@@H]3CN[C@H](C(=O)N(C)C)C3)[C@H](C)[C@H]12` [Meropenem, meropenem] has an MIC (E. coli IR60; IR60, read-out: Meropenem MIC) of 64 µg/mL (≈ 167 µM), an MIC (E. coli IR60; IR60, read-out: Meropenem MIC (10 μg ml^−1 2)) of 16 µg/mL (≈ 41.7 µM) and an MIC (E. coli IR60; IR60, read-out: Meropenem MIC (25 μg ml^−1 2)) of 16 µg/mL (≈ 41.7 µM). For the same molecule, the MIC ([1]; read-out: Meropenem MIC (10 μg ml^−1 2), with 10 μg ml^−1 2) was 16 µg/mL (≈ 41.7 µM), the MIC ([1]; read-out: Meropenem MIC, meropenem alone) was greater than 128 µg/mL and the “Meropenem MIC (25 μg ml^−1 2)” value [1] was 2 µg/mL. The “Meropenem MIC (25 μg ml^−1 2)” value ([1]; listed as meropenem) was less than 8 µg/mL, the MIC (K. pneumoniae Ecl8 pSU18; ECL8PSU18, read-out: Meropenem MIC) was no more than 0.25 µg/mL and the MIC (K. pneumoniae Ecl8 pSU18; ECL8PSU18, read-out: Meropenem MIC (10 μg ml^−1 2)) was no more than 0.25 µg/mL. For the same molecule, the MIC (K. pneumoniae Ecl8 pSU18; ECL8PSU18, read-out: Meropenem MIC (25 μg ml^−1 2)) was no more than 0.25 µg/mL, the MIC (E. coli IR10; IR10, read-out: Meropenem MIC) was 128 µg/mL (≈ 334 µM) and the MIC (E. coli IR10; IR10, read-out: Meropenem MIC (10 μg ml^−1 2)) was 8 µg/mL (≈ 20.9 µM). For the same molecule, the MIC (E. coli IR10; IR10, read-out: Meropenem MIC (25 μg ml^−1 2)) was 2 µg/mL (≈ 5.22 µM), the MIC ([2]; read-out: Meropenem MIC) was no more than 0.25 µg/mL and the MIC ([2]; read-out: Meropenem MIC (10 μg ml^−1 2)) was no more than 0.25 µg/mL. The MIC ([2]; read-out: Meropenem MIC (25 μg ml^−1 2)) was no more than 0.25 µg/mL, the MIC ([3]; read-out: Meropenem MIC (10 μg ml^−1 2), with 10 μg ml^−1 2, Ecl8 pSU18:NDM-1) was 8 µg/mL and the MIC ([3]; read-out: Meropenem MIC (25 μg ml^−1 2), with 25 μg ml^−1 2, Ecl8 pSU18:NDM-1) was less than 8 µg/mL. For the same molecule, the MIC ([3]; read-out: Meropenem MIC, checkerboard, 2 at 0 μg mL-1) was 128 µg/mL, the MIC ([3]; read-out: Meropenem MIC, checkerboard, 2 at 0.5 μg mL-1) was 64 µg/mL and the MIC ([3]; read-out: Meropenem MIC, checkerboard, 2 at 1 μg mL-1) was 32 µg/mL. For the same molecule, the MIC ([3]; read-out: Meropenem MIC, checkerboard, 2 at 2 μg mL-1) was 32 µg/mL, the MIC ([3]; read-out: Meropenem MIC, checkerboard, 2 at 4 μg mL-1) was 16 µg/mL and the MIC ([3]; read-out: Meropenem MIC, checkerboard, 2 at 8 μg mL-1) was 8 µg/mL. The MIC ([3]; read-out: Meropenem MIC, checkerboard, 2 at 16 μg mL-1) was 4 µg/mL, the MIC ([3]; read-out: Meropenem MIC, checkerboard, 2 at 32 μg mL-1) was 2 µg/mL and the MIC ([3]; read-out: Meropenem MIC, checkerboard, 2 at 64 μg mL-1) was no more than 1 µg/mL. The MIC ([3]; read-out: Meropenem MIC, meropenem alone, Ecl8 pSU18:NDM-1) was greater than 128 µg/mL, the “Meropenem MIC (25 μg ml^−1 2)” value ([3]; with 25 μg ml^−1 2, Ecl8 pSU18:NDM-1) was 4 µg/mL and the MIC (K. pneumoniae IR8; meropenem alone, read-out: Meropenem MIC) was 128 µg/mL (≈ 334 µM). The MIC (K. pneumoniae IR8; with 10 μg ml^−1 2, read-out: Meropenem MIC (10 μg ml^−1 2)) was 32 µg/mL (≈ 83.4 µM) and the MIC (K. pneumoniae IR8; with 25 μg ml^−1 2, read-out: Meropenem MIC (25 μg ml^−1 2)) was 16 µg/mL (≈ 41.7 µM).

`O=C(O)c1cccc2c1O[B-](O)(O)[C@@H](NC(=O)C1CCCCC1)C2` [compound 1] gave a pIC50 (CphA) of 5.3, an IC50 (CphA; 10 min preincubation) of 4.42 µM and a pIC50 (TEM-1) of 8.9. The IC50 (TEM-1; 10 min preincubation) was 0.001 µM, the pIC50 (IMP-1) was 4.6 and the pIC50 (BcII) was 5.1. The IC50 (BcII; 10 min preincubation) was 7.27 µM, the pIC50 (SPM-1) was 4.6 and the IC50 (SPM-1; 10 min preincubation) was 24.1 µM. It also gave a pIC50 (NDM-1) of 5.7, an IC50 (NDM-1; 10 min preincubation) of 2.04 µM and a pIC50 (VIM-2) of 7.3. The IC50 (VIM-2; 10 min preincubation) was 0.051 µM, the cytotoxicity (HEK293 cells) was “Neither 1 nor 2 showed cytotoxicity” and the pIC50 (OXA-10) was 6.4. It also gave an IC50 (PBP 3) greater than 100 µM.
